Measured values taken from US10040759B2, “Substituted azetidinyl compounds as GlyT1 inhibitors” (DART NEUROSCIENCE (CAYMAN) LTD., priority 2014, dated 2018).

Molecular target: T1, GlyT1 (Homo sapiens, UniProt P48067)
T1 construct: expressed in transfected cells
T1 sequence (P48067 1-706): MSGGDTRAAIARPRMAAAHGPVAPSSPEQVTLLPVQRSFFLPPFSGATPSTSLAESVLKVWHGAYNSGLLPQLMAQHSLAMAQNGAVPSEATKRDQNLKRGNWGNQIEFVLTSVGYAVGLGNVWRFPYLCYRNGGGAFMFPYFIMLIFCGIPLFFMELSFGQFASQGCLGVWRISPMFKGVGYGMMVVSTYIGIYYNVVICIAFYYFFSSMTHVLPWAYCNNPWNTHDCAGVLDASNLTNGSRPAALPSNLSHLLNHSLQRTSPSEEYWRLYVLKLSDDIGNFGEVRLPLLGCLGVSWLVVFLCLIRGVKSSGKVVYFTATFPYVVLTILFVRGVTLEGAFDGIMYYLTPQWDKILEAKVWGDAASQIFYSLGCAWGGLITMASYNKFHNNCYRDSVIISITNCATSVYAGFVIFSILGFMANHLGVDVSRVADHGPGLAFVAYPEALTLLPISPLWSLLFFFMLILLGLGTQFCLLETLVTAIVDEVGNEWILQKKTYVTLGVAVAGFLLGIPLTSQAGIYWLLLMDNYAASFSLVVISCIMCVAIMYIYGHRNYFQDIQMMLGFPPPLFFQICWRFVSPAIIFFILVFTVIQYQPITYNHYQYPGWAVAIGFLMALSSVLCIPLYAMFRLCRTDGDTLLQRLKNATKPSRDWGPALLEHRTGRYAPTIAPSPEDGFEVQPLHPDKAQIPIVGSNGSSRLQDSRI
Assay: Glycine Transporter 1 (GlyT1) uptake assay, scintillation proximity assay of [14C]-glycine uptake
Type: cell-based
Details: [14C]-glycine uptake; read-out: GlyT1 (pIC50) (converted)
How it was run: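 IC50 values were derived by four-parameter logistic fitting of counts. The 2× compound solutions were made by 1:100 dilution into HBSS of DMSO serial dilutions.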

Work on `COc1c(S(C)(=O)=O)ccc(OCC(F)(F)F)c1C(=O)N1CC(Oc2ccc(Cl)cn2)C1` [Example 232, 5-Chloro-2-({1-[3-methanesulfonyl-2-methoxy-6-(2,2,2-trifluoroethoxy)benzoyl]azetidin-3-yl}oxy)pyridine] yielded an IC50 of under 100 nM.

Compound `COc1c(C#N)ccc(C2CC(F)(F)C2)c1C(=O)N1CC(c2ccc(C(F)(F)F)cn2)C1` [Example 151, 4-(3,3-Difluorocyclobutyl)-2-methoxy-3-{3-[5-(trifluoromethyl)pyridin-2-yl]azetidine-1-carbonyl}benzonitrile] has an IC50 of 100 to 1000 nM.

Compound `COc1ccc(C2CN(C(=O)c3c(OC(C)C(F)(F)F)ccc(C#N)c3OC)C2)cc1` (stereo not drawn) [Example 96, 2-Methoxy-3-{[3-(4-methoxyphenyl)azetidin-1-yl]carbonyl}-4-[(1,1,1-trifluoropropan-2-yl)oxy]benzonitrile] has an IC50 of under 100 nM.

Work on `COc1c(C#N)ccc(C2(F)CCOCC2)c1C(=O)N1CC(Oc2ccc(F)cc2)C1` [Example 26, 4-(4-Fluorooxan-4-yl)-3-{[3-(4-fluorophenoxy)azetidin-1-yl]carbonyl}-2-methoxybenzonitrile] yielded an IC50 of 1000 to 10000 nM.

With `COc1c(S(C)(=O)=O)ccc(O[C@@H](C)C(F)(F)F)c1C(=O)N1CC(c2ccc(C(F)(F)F)cc2F)C1` [Example 139, 3-[2-Fluoro-4-(trifluoromethyl)phenyl]-1-(3-methanesulfonyl-2-methoxy-6-{[(2S)-1,1,1-trifluoropropan-2-yl]oxy}benzoyl)azetidine] the IC50 was under 100 nM.

`COc1c(S(C)(=O)=O)ccc(O[C@@H](C)C(F)(F)F)c1C(=O)N1CC(Oc2ccc(C(F)(F)F)cc2)C1` [Example 202, 1-(3-Methanesulfonyl-2-methoxy-6-{[(2S)-1,1,1-trifluoropropan-2-yl]oxy}benzoyl)-3-[4-(trifluoromethyl)phenoxy]azetidine] gave an IC50 of under 100 nM.

In the case of `COc1c(C#N)ccc(O[C@@H](C)C(F)(F)F)c1C(=O)N1CC(c2ccc(C(F)F)cn2)C1` [Example 115, 3-({3-[5-(Difluoromethyl)pyridin-2-yl]azetidin-1-yl}carbonyl)-2-methoxy-4-{[(2S)-1,1,1-trifluoropropan-2-yl]oxy}benzonitrile], the IC50 is reported as 100 to 1000 nM.

With `COc1ccc(OC2CN(C(=O)c3c(OC(C)C(F)(F)F)ccc(C#N)c3Cl)C2)cc1` (stereo not drawn) [Example 89, 2-Chloro-3-{[3-(4-methoxyphenoxy)azetidin-1-yl]carbonyl}-4-[(1,1,1-trifluoropropan-2-yl)oxy]benzonitrile] the IC50 was under 100 nM.

`COc1c(C#N)ccc(O[C@@H](C)C(F)(F)F)c1C(=O)N1CC(c2ccc3ncoc3c2)C1` [Example 130, 3-{[3-(1,3-Benzoxazol-6-yl)azetidin-1-yl]carbonyl}-2-methoxy-4-{[(2S)-1,1,1-trifluoropropan-2-yl]oxy}benzonitrile] was tested, and the IC50 was under 100 nM.

`COc1c(S(C)(=O)=O)ccc(OCC(F)(F)F)c1C(=O)N1CC(Oc2ccc(F)cc2C)C1` [Example 224, 3-(4-Fluoro-2-methylphenoxy)-1-[3-methanesulfonyl-2-methoxy-6-(2,2,2-trifluoroethoxy)benzoyl]azetidine] showed an IC50 of 100 to 1000 nM.

`CC(Oc1ccc(C#N)c(Cl)c1C(=O)N1CC(c2ccc(C(F)(F)F)cc2)C1)C(F)(F)F` (stereo not drawn) [Example 63, 2-Chloro-3-({3-[4-(trifluoromethyl)phenyl]azetidin-1-yl}carbonyl)-4-[(1,1,1-trifluoropropan-2-yl)oxy]benzonitrile] was tested, and the IC50 was 100 to 1000 nM.

`COc1c(S(C)(=O)=O)ccc(OC(C)C)c1C(=O)N1CC(c2ncc(C(F)(F)F)cc2F)C1` [Example 215, 3-Fluoro-2-{1-[3-methanesulfonyl-2-methoxy-6-(propan-2-yloxy)benzoyl]azetidin-3-yl}-5-(trifluoromethyl)pyridine] was tested, and the IC50 was 100 to 1000 nM.

`COc1c(S(C)(=O)=O)ccc(OCC(F)(F)F)c1C(=O)N1CC(c2ccc3ncoc3c2)C1` [Example 247, 6-{1-[3-Methanesulfonyl-2-methoxy-6-(2,2,2-trifluoroethoxy)benzoyl]azetidin-3-yl}-1,3-benzoxazole] showed an IC50 of under 100 nM.

In the case of `COc1c(C#N)ccc(C2(F)CCC2)c1C(=O)N1CC(c2ccc(C#N)cc2)C1` [Example 104, 3-{[3-(4-Cyanophenyl)azetidin-1-yl]carbonyl}-4-(1-fluorocyclobutyl)-2-methoxybenzonitrile], the IC50 is reported as 100 to 1000 nM.

Work on `CC(Oc1ccc(C#N)c(Cl)c1C(=O)N1CC(c2cc(F)cc(F)c2)C1)C(F)(F)F` (stereo not drawn) [Example 82, 2-Chloro-3-{[3-(3,5-difluorophenyl)azetidin-1-yl]carbonyl}-4-[(1,1,1-trifluoropropan-2-yl)oxy]benzonitrile] yielded an IC50 of 1000 to 10000 nM.

`COc1c(S(C)(=O)=O)ccc(OCC(C)(C)C)c1C(=O)N1CC(Oc2c(F)cc(F)cc2F)C1` [Example 240, 1-[6-(2,2-Dimethylpropoxy)-3-methanesulfonyl-2-methoxybenzoyl]-3-(2,4,6-trifluorophenoxy)azetidine] was tested, and the IC50 was 100 to 1000 nM.

`COc1c(C#N)ccc(O[C@@H](C)C(F)(F)F)c1C(=O)N1CC(c2ccc(C#N)c(F)c2Cl)C1` [Example 124, 3-Chloro-4-{1-[(3-cyano-2-methoxy-6-{[(2S)-1,1,1-trifluoropropan-2-yl]oxy}phenyl)carbonyl]azetidin-3-yl}-2-fluorobenzonitrile] showed an IC50 of under 100 nM.

`COc1c(S(C)(=O)=O)ccc(O[C@@H](C)C(F)(F)F)c1C(=O)N1CC(c2ccc(C(F)(F)F)cc2Cl)C1` [Example 146, 3-[2-Chloro-4-(trifluoromethyl)phenyl]-1-(3-methanesulfonyl-2-methoxy-6-{[(2S)-1,1,1-trifluoropropan-2-yl]oxy}benzoyl)azetidine] gave an IC50 of under 100 nM.

`COc1c(C#N)ccc(OC(C)C(F)(F)F)c1C(=O)N1CC(c2ccc(F)cn2)C1` (stereo not drawn) [Example 65, 3-{[3-(5-Fluoropyridin-2-yl)azetidin-1-yl]carbonyl}-2-methoxy-4-[(1,1,1-trifluoropropan-2-yl)oxy]benzonitrile] was tested, and the IC50 was under 100 nM.

With `COc1cc(C(F)(F)F)ccc1C1CN(C(=O)c2c(O[C@@H](C)C(F)(F)F)ccc(C#N)c2OC)C1` [Example 129, 2-Methoxy-3-({3-[2-methoxy-4-(trifluoromethyl)phenyl]azetidin-1-yl}carbonyl)-4-{[(2S)-1,1,1-trifluoropropan-2-yl]oxy}benzonitrile] the IC50 was 100 to 1000 nM.

`C[C@@H](Oc1ccc(C#N)c(Cl)c1C(=O)N1CC(c2ccc(C3CCOCC3)cn2)C1)C(F)(F)F` [Example 170, 2-Chloro-3-{3-[5-(oxan-4-yl)pyridin-2-yl]azetidine-1-carbonyl}-4-{[(2R)-1,1,1-trifluoropropan-2-yl]oxy}benzonitrile] was tested, and the IC50 was under 100 nM.

`COc1ccc(C2CN(C(=O)c3c(OC(C)C(F)(F)F)ccc(C#N)c3Cl)C2)cc1` (stereo not drawn) [Example 80, 2-Chloro-3-{[3-(4-methoxyphenyl)azetidin-1-yl]carbonyl}-4-[(1,1,1-trifluoropropan-2-yl)oxy]benzonitrile] showed an IC50 of 1000 to 10000 nM.

Compound `COc1c(C#N)ccc(C2CN(C(=O)c3c(O[C@@H](C)C(F)(F)F)ccc(C#N)c3OC)C2)c1Cl` [Example 175, 3-Chloro-4-{1-[(3-cyano-2-methoxy-6-{[(2S)-1,1,1-trifluoropropan-2-yl]oxy}phenyl)carbonyl]azetidin-3-yl}-2-methoxybenzonitrile] has an IC50 of under 100 nM.

In the case of `CC(Oc1ccc(C#N)c(Cl)c1C(=O)N1CC(c2ccccn2)C1)C(F)(F)F` (stereo not drawn) [Example 88, 2-Chloro-3-{[3-(pyridin-2-yl)azetidin-1-yl]carbonyl}-4-[(1,1,1-trifluoropropan-2-yl)oxy]benzonitrile], the IC50 is reported as 100 to 1000 nM.
